The values that follow come from paper PMC6099574, “Synthesis, Design, and Structure–Activity Relationship of the Pyrimidone Derivatives as Novel Selective Inhibitors of Plasmodium falciparum Dihydroorotate Dehydrogenase” (Molecules : A Journal of Synthetic Chemistry and Natural …, 2018).

Where two headings read alike, the source gives them in different places. A value given as a limit tells only on which side of the number the result lay.

On the set-up of data set [1]: method as in PMID 27641613. The note with it: compared with DSM 265; cited from earlier work.
Details of data set [2]: method as in PMID 27641613. The note with it: compared with DSM 265; cited from earlier work. The source holds these as a separate data set.
On the set-up of data set [3]: method as in PMID 27641613. The settings on record: compared with DSM 265; cited from earlier work. The source holds these as a separate data set.
The target of data set [4] is T1, hDHODH (Met30–Arg396) (Homo sapiens, UniProt Q02127).
T1 construct: enzyme activity determination of PfDHODH (Phe158–Ser569) and hDHODH (Met30–Arg396); made in house
The data set is described as follows: In vitro enzyme assay, hDHODH (DCIP reduction). Type of data set: biochemical. The settings on record: for IC50: in vitro enzyme assay. The procedure:
(§1) Protein expression, purification, and enzyme activity determination of PfDHODH (Phe158–Ser569) and hDHODH (Met30–Arg396) were performed according to our previous work. The enzymes were diluted to a final concentration of 10 nM using the assay buffer containing 50 mM HEPES (pH 8.0), 150 mM KCl, 0.1% Triton X-100 supplemented with 100 µM UQ0, and 120 µM DCIP. The mixture was transferred into a 96-well plate and incubated with or without various amounts of inhibitors for 5 min at room temperature, and then the dihydroorotate was added to a final concentration of 500 µM to initiate the reaction. The reaction was monitored by measuring the decrease in DCIP in the absorption at 600 nm at each 30 s over a period of 6 min. Brequinar and DSM1 were measured as the positive controls for hDHODH and PfDHODH, respectively. Percent inhibition relative to no inhibitor control was calculated by (1 − Vi/V0) × 100. For the determination of the IC50 value of the inhibitor, eight or nine different concentrations were applied. Each inhibitor concentration point was tested in triplicate, and the IC50 values were calculated using the sigmoidal fitting option of the program Origin 8.0 (Originlab, Northampton, MA, US).

The target in data set [5] is T2, PfDHODH (Phe158–Ser569) (Plasmodium falciparum, UniProt Q08210).
T2 construct: enzyme activity determination of PfDHODH (Phe158–Ser569) and hDHODH (Met30–Arg396); made in house
The data set is described as follows: In vitro enzyme assay, PfDHODH (DCIP reduction). Format: biochemical. The settings on record: for inhibitory activity against PfDHODH (in words): qualitative statement. Here is the method: as §1, with “Brequinar and DSM1 were measured as the positive controls for hDHODH and PfDHODH, respectively.” left out

Data set [6] has as its target T2, PfDHODH (Phe158–Ser569). Also on record: method as in PMID 24073986. The note with it: previous work; read-out: IC50 against PfDHODH; cited from earlier work.
Details of data set [7]: method as in PMID 24073986. The settings on record: cited from earlier work.
A further data set concerns Dd2 cells. Also on record: method as in PMID 24073986. The note with it: read-out: IC50 parasite growth in vitro, Dd2 cells; cited from earlier work.
The target in data set [8] is T1, hDHODH (Met30–Arg396). Also on record: method as in PMID 24073986. The settings on record: previous work; cited from earlier work.
Another data set has as its system 3D7 cells. More on the design: method as in PMID 24073986. The note with it: read-out: IC50 parasite growth in vitro, 3D7 cells; cited from earlier work.
Details of data set [9]: method as in PMID 24073986. The note with it: cited from earlier work. The source holds these as a separate data set.
The mark [10] stands for this setting: in vitro enzyme assay, read-out: IC50 (μM) PfDHODH.

T1 sequence (Q02127 29-395 limits assumed): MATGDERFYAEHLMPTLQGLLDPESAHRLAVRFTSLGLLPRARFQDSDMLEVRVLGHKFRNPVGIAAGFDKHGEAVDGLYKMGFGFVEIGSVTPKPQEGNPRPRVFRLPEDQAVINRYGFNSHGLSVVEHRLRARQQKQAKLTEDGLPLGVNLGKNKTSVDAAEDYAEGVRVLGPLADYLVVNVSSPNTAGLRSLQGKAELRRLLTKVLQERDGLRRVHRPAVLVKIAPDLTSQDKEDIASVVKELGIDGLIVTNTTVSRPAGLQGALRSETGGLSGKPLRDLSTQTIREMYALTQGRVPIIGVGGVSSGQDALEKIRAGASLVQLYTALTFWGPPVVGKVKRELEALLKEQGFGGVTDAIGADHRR
T2 sequence (Q08210 158-569): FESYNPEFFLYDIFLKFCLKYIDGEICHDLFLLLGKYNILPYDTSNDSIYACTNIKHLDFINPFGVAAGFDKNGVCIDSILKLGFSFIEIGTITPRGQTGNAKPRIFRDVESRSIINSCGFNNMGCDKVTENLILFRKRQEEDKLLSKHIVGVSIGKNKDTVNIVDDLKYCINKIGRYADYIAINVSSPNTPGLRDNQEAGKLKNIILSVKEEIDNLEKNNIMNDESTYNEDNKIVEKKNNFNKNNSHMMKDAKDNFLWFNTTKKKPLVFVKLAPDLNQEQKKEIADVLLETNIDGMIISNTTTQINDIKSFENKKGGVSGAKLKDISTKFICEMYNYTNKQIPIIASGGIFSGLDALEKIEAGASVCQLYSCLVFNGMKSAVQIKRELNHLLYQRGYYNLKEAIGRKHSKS

Consider `Cc1cc(Nc2ccc(C(F)(F)F)nc2)n2nc(C(C)(F)F)nc2n1` [Compound 9], for which, in data set [1], the “plasma exposure after oral dosing (in words)” value is given as “increased plasma exposure after oral dosing”. Moreover, the “solubility (in words)” value in data set [2] is listed as “improved solubility”. In addition, the “intrinsic clearance (in words)” value in [3] is on record as “lower intrinsic clearance”.
For `CCNC(=O)C1=C(Nc2ccc3c(c2)CCC3)OCC1=O` [Compound 13, 2-[(2,3-Dihydro-1H-inden-5-yl)amino]-N-ethyl-4-oxo-4,5-dihydrofuran-3-carboxamide], the melting point fell in the range of 127.7 to 128.2 °C. Also, the IC50 against hDHODH (Met30–Arg396) [4] was > 10 µM. On PfDHODH (Phe158–Ser569) [5] (setting [10]), the IC50 was > 10 µM.
`O=C1COC2=C1C(=O)N(C1CC1)CN2c1ccc2ccccc2c1` [Compound 25, 3-Cyclopropyl-1-(naphthalen-2-yl)-2,3-dihydrofuro[2,3-d]pyrimidine-4,5(1H,6H)-dione] had a melting point of 128.8 to 129.5 °C. The IC50 against hDHODH (Met30–Arg396) [4] is > 10 µM. Further, at PfDHODH (Phe158–Ser569) [5], the concentration for half-maximal inhibition (IC50) worked out at 5 ± 1 µM.
`CCN1CN(c2ccc3c(c2)CCC3)C2=C(C(=O)CO2)C1=O` [Compound 21, 1-(2,3-Dihydro-1H-inden-5-yl)-3-ethyl-2,3-dihydrofuro[2,3-d]pyrimidine-4,5(1H,6H)-dione] registered a melting point of 128.6 to 129.4 °C. In addition, at hDHODH (Met30–Arg396) [4], the IC50 was > 10 µM. Besides, at PfDHODH (Phe158–Ser569) [5] (setting [10]), the IC50 is > 10 µM.
`O=C1COC(Nc2ccc3ccccc3c2)=C1C(=O)NCC1CC1` [Compound 19, N-(Cyclopropylmethyl)-2-(naphthalen-2-ylamino)-4-oxo-4,5-dihydrofuran-3-carboxamide]: the melting point was in the range of 164.8 to 165.3 °C. In addition, the concentration for half-maximal inhibition (IC50) on hDHODH (Met30–Arg396) [4] was > 10 µM. The IC50 at PfDHODH (Phe158–Ser569) [5] (setting [10]) is > 10 µM. For the same compound, the “inhibitory activity against PfDHODH (in words)” value (shortened to “inhibitory activity”) at PfDHODH (Phe158–Ser569) [5] is “lost the inhibitory activity”.
Turning to `CCCN1CN(c2ccc3ccccc3c2)C2=C(C(=O)CO2)C1=O` [Compound 24, 1-(Naphthalen-2-yl)-3-propyl-2,3-dihydrofuro[2,3-d]pyrimidine-4,5(1H,6H)-dione], the melting point is 128.6 to 129.7 °C. Moreover, the IC50 on hDHODH (Met30–Arg396) [4] is > 10 µM. Also, the IC50 on PfDHODH (Phe158–Ser569) [5] (setting [10]) was 12 ± 6 µM.
The corresponding values for `CN1CN(c2ccc3ccccc3c2)C2=C(C(=O)CO2)C1=O` [Compound 22, 3-Methyl-1-(naphthalen-2-yl)-2,3-dihydrofuro[2,3-d]pyrimidine-4,5(1H,6H)-dione] are 127.9 to 128.5 °C, > 10 µM and 8 ± 1 µM.
As to `CCNC(=O)C1=C(Nc2ccccc2)OCC1=O` [Compound 12, N-Ethyl-4-oxo-2-(phenylamino)-4,5-dihydrofuran-3-carboxamide], the melting point fell in the range of 146.9 to 147.4 °C. This compound also returned an IC50 against hDHODH (Met30–Arg396) [4] of 2.4 ± 0.1 µM. Moreover, on PfDHODH (Phe158–Ser569) [5] (setting [10]), the IC50 was > 10 µM. Also, the “inhibitory activity” value against PfDHODH (Phe158–Ser569) [5] is “inactive”.
For `CCN1CN(c2ccc3ccccc3c2)C2=C(C(=O)CO2)C1=O` [Compound 23, 3-Ethyl-1-(naphthalen-2-yl)-2,3-dihydrofuro[2,3-d]pyrimidine-4,5(1H,6H)-dione], the melting point was 128.3 to 129 °C. Besides, on hDHODH (Met30–Arg396) [4], the IC50 is > 10 µM. Also, on PfDHODH (Phe158–Ser569) [5] (setting [10]), the IC50 stood at 4 ± 1 µM.
Consider `O=C(O)C1=C(Nc2ccc3ccccc3c2)OCC1=O` [Compound 11, 2-(Naphthalen-2-ylamino)-4-oxo-4,5-dihydrofuran-3-carboxylic acid], for which the melting point was in the range of 164.4 to 165 °C. At hDHODH (Met30–Arg396) [4], the half-inhibitory concentration (IC50) was > 10 µM. Also, at PfDHODH (Phe158–Ser569) [5] (setting [10]), the IC50 was 0.106 ± 0.009 µM. For the same compound, at PfDHODH (Phe158–Ser569) [5], the “inhibitory activity” value was “lower inhibitory activity in comparison with 10”.
In the case of `NNC(=O)C1=C(Nc2ccc3ccccc3c2)OCC1=O` [Compound 20, 2-(Naphthalen-2-ylamino)-4-oxo-4,5-dihydrofuran-3-carbohydrazide], the melting point lay in the range of 167.3 to 167.9 °C. Moreover, the IC50 at hDHODH (Met30–Arg396) [4] was > 10 µM. For the same compound, the IC50 at PfDHODH (Phe158–Ser569) [5] (setting [10]) came out at 0.07 ± 0.01 µM.
On to `CCCNC(=O)C1=C(Nc2ccc3ccccc3c2)OCC1=O` [Compound 16, 2-(Naphthalen-2-ylamino)-4-oxo-N-propyl-4,5-dihydrofuran-3-carboxamide], for which the IC50 at hDHODH (Met30–Arg396) [4] and at PfDHODH (Phe158–Ser569) [5] (setting [10]) was > 10 µM each time. Besides, the “inhibitory activity” value against PfDHODH (Phe158–Ser569) [5] is “lost their activities”.
The compound `CCNC(=O)C1=C(Nc2ccc3ccccc3c2)OCC1=O` [Compound 15, N-Ethyl-2-(naphthalen-2-ylamino)-4-oxo-4,5-dihydrofuran-3-carboxamide] registered a melting point of 121.8 to 123 °C. Moreover, the IC50 against hDHODH (Met30–Arg396) [4] is > 10 µM. For the same compound, the IC50 at PfDHODH (Phe158–Ser569) [5] (setting [10]) was determined as 4.8 ± 0.4 µM.
The matching figures for `O=C1COC(Nc2ccc3ccccc3c2)=C1C(=O)NC1CC1` [Compound 18, N-Cyclopropyl-2-(naphthalen-2-ylamino)-4-oxo-4,5-dihydrofuran-3-carboxamide]: 140.8 to 141.6 °C, > 10 µM and 6 ± 1 µM.
`NN1CN(c2ccc3ccccc3c2)C2=C(C(=O)CO2)C1=O` [Compound 26, 3-Amino-1-(naphthalen-2-yl)-2,3-dihydrofuro[2,3-d]pyrimidine-4,5(1H,6H)-dione] had a melting point of 168.4 to 169.2 °C. Besides, the “species selectivity over hDHODH” value on hDHODH (Met30–Arg396) [4] (PfDHODH versus hDHODH) is reported as > 400 fold. Moreover, the IC50 on hDHODH (Met30–Arg396) [4] is > 10 µM. Also, the “fold more active against PfDHODH than compound 20” value on PfDHODH (Phe158–Ser569) [5] (compared with compound 20) came to 3 fold. Moreover, at PfDHODH (Phe158–Ser569) [5] (setting [10]), the IC50 amounted to 0.023 ± 0.001 µM.
On to `CCOC(=O)C1=C(Nc2ccc3ccccc3c2)OCC1=O` [Compound 10], for which the IC50 at PfDHODH (Phe158–Ser569) [6] was 0.006 µM; with Dd2 cells, 0.018 µM; in the data set on 3D7 cells it was 0.015 µM. Further, the “metabolic properties (in words)” value in data set [7] was “poor metabolic properties”. Also, at hDHODH (Met30–Arg396) [8], the “species selectivity over hDHODH” value is reported as > 14,000 fold. Besides, in data set [9], the “efficacy in vivo (in words)” value was “less effective in vivo”.
Compound `CNC(=O)C1=C(Nc2ccc3ccccc3c2)OCC1=O` [Compound 14, N-Methyl-2-(naphthalen-2-ylamino)-4-oxo-4,5-dihydrofuran-3-carboxamide] yielded a melting point of 126.3 to 126.9 °C. The IC50 against hDHODH (Met30–Arg396) [4] is > 10 µM. For the same compound, on PfDHODH (Phe158–Ser569) [5] (setting [10]), the IC50 was 9 ± 1 µM.

What is called melting point is the temperature of the solid-liquid transition. In general, IC50 refers to the concentration that gives 50% inhibition.
